System: rgRSV224 virus
Test: Antiviral activity: inhibition of rgRSV224 (GFP-expressing RSV) replication in HeLa cells, GFP expression read-out
Type: cell-based, respiratory syncytial virus (RSV)
Conditions: human respiratory syncytial virus, HeLa, read-out: RSV HELA pEC50, rgRSV224 virus (MOI=1) in HeLa cells, GFP read-out (converted)
In short: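 HeLa cells (3,000/well) were infected with GFP-expressing rgRSV224 (MOI=1) in the presence of 9 serial 4-fold compound dilutions (0.05% DMSO) and incubated at 37° C, 5% CO2. After three days, GFP expression was measured by laser microscopy. EC50 is the concentration giving 50% inhibition of GFP expression.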

In order of falling EC50:
1. CCc1cc(C(=O)N2CCCCCC2C)nc2c(Cl)c(-c3ccc(NC(=O)C4CC4)cc3F)nn12 (stereo not drawn) [Compound E13]  1480 nM
2. CCOC(=O)Nc1ccc(-c2cc3nc(C(=O)N4CCCCCC4C)cc(CC)n3n2)cc1 (stereo not drawn) [Compound C7]  1380 nM
3. CCc1cc(C(=O)N2CCCCCC2C)nc2cc(-c3ccc(NC(=O)C4CC4)cc3C)nn12 (stereo not drawn) [Compound E16]  1320 nM
4. CC1CCCCCN1C(=O)c1cc(N2CCCCC2)n2nc(-c3ccc(NC(=O)C4CC4)cc3)cc2n1 (stereo not drawn) [Compound E18]  1260 nM
5. CCc1cc(C(=O)N2CCCCC2C)nc2cc(-c3ccc(NC(=O)C4CC4)cc3)nn12 (stereo not drawn) [Compound E15]  832 nM
6. CCCC(=O)Nc1ccc(-c2cc3nc(C(=O)N4CCCCCC4C)cc(CC)n3n2)cc1 (stereo not drawn) [Compound E20]  692 nM
7. CCc1cc(C(=O)N2CCCCCC2C)nc2cc(-c3ccc(NC(=O)C4CC4)cc3F)nn12 (stereo not drawn) [Compound E11]  631 nM
8. CCc1cc(C(=O)N2CCCCCC2C)nc2cc(-c3ccc(NC(=O)c4nccn4C)cc3F)nn12 (stereo not drawn) [Compound E1]  617 nM
9. CCc1cc(C(=O)N2CCCCCC2C)nc2cc(-c3ccc(NC(=O)OCCO)cc3)nn12 (stereo not drawn) [Compound C6]  537 nM
10. CC1CCCCCN1C(=O)c1cc(N(C)C2CCCCC2)n2nc(-c3ccc(NC(=O)C4CC4)cc3)cc2n1 (stereo not drawn) [Compound E19]  537 nM
11. CC1CCCCCN1C(=O)c1cc(N2CCCC2)n2nc(-c3ccc(NC(=O)C4CC4)cc3)cc2n1 (stereo not drawn) [Compound E17]  513 nM
12. CCc1cc(C(=O)N2CCCCCC2C)nc2c(F)c(-c3ccc(NS(C)(=O)=O)cc3F)nn12 (stereo not drawn) [Compound D4]  490 nM
13. CCc1cc(C(=O)N2CCCCCC2C)nc2cc(-c3ccc(NC(=O)C4(C)CC4)cc3F)nn12 (stereo not drawn) [Compound E8]  468 nM
14. CCc1cc(C(=O)N2CCCCCC2C)nc2cc(-c3ccc(NC(=O)C4CC4)cc3)nn12 (stereo not drawn) [Compound E14]  309 nM
15. CCc1cc(C(=O)N2CCCCCC2C)nc2cc(-c3ccc(NS(C)(=O)=O)cc3F)nn12 (stereo not drawn) [Compound D1]  288 nM
16. CCCC(=O)Nc1ccc(-c2cc3nc(C(=O)N4CCCCCC4C)cc(CC)n3n2)c(F)c1 (stereo not drawn) [Compound E4]  182 nM
17. CCc1cc(C(=O)N2CCCCCC2C)nc2cc(-c3ccc(NC(=O)CC4CCCCN(C)C4=O)cc3)nn12 (stereo not drawn) [Compound E9]  170 nM
18. CCc1cc(C(=O)N2CCCCCC2C)nc2cc(-c3ccc(NC(=O)CC#N)cc3F)nn12 (stereo not drawn) [Compound E6]  166 nM
19. CCc1cc(C(=O)N2CCCCCCC2C)nc2cc(-c3ccc(NS(C)(=O)=O)cc3F)nn12 (stereo not drawn) [Compound D3]  145 nM
20. C=CCC(=O)Nc1ccc(-c2cc3nc(C(=O)N4CCCCCC4C)cc(CC)n3n2)c(F)c1 (stereo not drawn) [Compound E5]  138 nM
21. CCc1cc(C(=O)N2CCCCCC2C)nc2cc(-c3ccc(NC(=O)Cn4ccnc4)cc3F)nn12 (stereo not drawn) [Compound E3]  132 nM
22. CCc1cc(C(=O)N2CCCCCC2C)nc2cc(-c3ccc(NC(=O)CCOC)cc3F)nn12 (stereo not drawn) [Compound E7]  117 nM
23. CCc1cc(C(=O)N2CCCCCC2C)nc2cc(-c3ccc(NC(=O)Cc4ccncc4)cc3F)nn12 (stereo not drawn) [Compound E2]  93.3 nM
24. CCc1cc(C(=O)N2CCCCC[C@H]2C)nc2cc(-c3ccc(NC(=O)C4CC4)cc3F)nn12 [Compound E10]  91.2 nM

System: not listed separately
Test: Cytotoxicity in HeLa cells, ATP content measured with the ATPlite kit
Type: cell-based
Conditions: human, TOX HELA pCC50

`CCc1cc(C(=O)N2CCCCCC2C)nc2cc(-c3ccc(NC(=O)OCCO)cc3)nn12` (stereo not drawn) [Compound C6] and `CCOC(=O)Nc1ccc(-c2cc3nc(C(=O)N4CCCCCC4C)cc(CC)n3n2)cc1` (stereo not drawn) [Compound C7] cannot be ordered by CC50 at 3 days: over 25100 nM for the first, over 100000 nM for the second.

`CCc1cc(C(=O)N2CCCCCC2C)nc2cc(-c3ccc(NS(C)(=O)=O)cc3F)nn12` (stereo not drawn) [Compound D1] and `CCc1cc(C(=O)N2CCCCCCC2C)nc2cc(-c3ccc(NS(C)(=O)=O)cc3F)nn12` (stereo not drawn) [Compound D3] cannot be ordered by CC50 at 3 days: 51300 nM for the first, over 25100 nM for the second.

`CCc1cc(C(=O)N2CCCCCC2C)nc2c(F)c(-c3ccc(NS(C)(=O)=O)cc3F)nn12` (stereo not drawn) [Compound D4] and `CCc1cc(C(=O)N2CCCCCC2C)nc2c(Cl)c(-c3ccc(NC(=O)C4CC4)cc3F)nn12` (stereo not drawn) [Compound E13] cannot be ordered by CC50 at 3 days: over 25100 nM for the first, over 25100 nM for the second.

First: CCc1cc(C(=O)N2CCCCCC2C)nc2cc(-c3ccc(NC(=O)c4nccn4C)cc3F)nn12 (stereo not drawn) [Compound E1]
Second: CCc1cc(C(=O)N2CCCCCC2C)nc2cc(-c3ccc(NC(=O)Cn4ccnc4)cc3F)nn12 (stereo not drawn) [Compound E3]
The CC50 at 3 days of the first is higher: over 25100 nM for the first, 6460 nM for the second.

`CCc1cc(C(=O)N2CCCCCC2C)nc2cc(-c3ccc(NC(=O)Cc4ccncc4)cc3F)nn12` (stereo not drawn) [Compound E2] and `CCCC(=O)Nc1ccc(-c2cc3nc(C(=O)N4CCCCCC4C)cc(CC)n3n2)c(F)c1` (stereo not drawn) [Compound E4] cannot be ordered by CC50 at 3 days: over 25100 nM for the first, over 25100 nM for the second.

`C=CCC(=O)Nc1ccc(-c2cc3nc(C(=O)N4CCCCCC4C)cc(CC)n3n2)c(F)c1` (stereo not drawn) [Compound E5] and `CCc1cc(C(=O)N2CCCCCC2C)nc2cc(-c3ccc(NC(=O)CC#N)cc3F)nn12` (stereo not drawn) [Compound E6] cannot be ordered by CC50 at 3 days: over 25100 nM for the first, over 25100 nM for the second.

`CCc1cc(C(=O)N2CCCCCC2C)nc2cc(-c3ccc(NC(=O)CCOC)cc3F)nn12` (stereo not drawn) [Compound E7] and `CCc1cc(C(=O)N2CCCCCC2C)nc2cc(-c3ccc(NC(=O)C4(C)CC4)cc3F)nn12` (stereo not drawn) [Compound E8] cannot be ordered by CC50 at 3 days: over 25100 nM for the first, over 25100 nM for the second.

`CCc1cc(C(=O)N2CCCCCC2C)nc2cc(-c3ccc(NC(=O)CC4CCCCN(C)C4=O)cc3)nn12` (stereo not drawn) [Compound E9] and `CCc1cc(C(=O)N2CCCCCC2C)nc2cc(-c3ccc(NC(=O)C4CC4)cc3)nn12` (stereo not drawn) [Compound E14] cannot be ordered by CC50 at 3 days: over 25100 nM for the first, over 50100 nM for the second.

`CCc1cc(C(=O)N2CCCCC[C@H]2C)nc2cc(-c3ccc(NC(=O)C4CC4)cc3F)nn12` [Compound E10] and `CCc1cc(C(=O)N2CCCCCC2C)nc2cc(-c3ccc(NC(=O)C4CC4)cc3F)nn12` (stereo not drawn) [Compound E11] cannot be ordered by CC50 at 3 days: over 25100 nM for the first, over 25100 nM for the second.

`CCc1cc(C(=O)N2CCCCC2C)nc2cc(-c3ccc(NC(=O)C4CC4)cc3)nn12` (stereo not drawn) [Compound E15] and `CCCC(=O)Nc1ccc(-c2cc3nc(C(=O)N4CCCCCC4C)cc(CC)n3n2)cc1` (stereo not drawn) [Compound E20] cannot be ordered by CC50 at 3 days: over 96200 nM for the first, over 25100 nM for the second.

`CCc1cc(C(=O)N2CCCCCC2C)nc2cc(-c3ccc(NC(=O)C4CC4)cc3C)nn12` (stereo not drawn) [Compound E16] and `CC1CCCCCN1C(=O)c1cc(N2CCCC2)n2nc(-c3ccc(NC(=O)C4CC4)cc3)cc2n1` (stereo not drawn) [Compound E17] cannot be ordered by CC50 at 3 days: over 10000 nM for the first, over 50100 nM for the second.

`CC1CCCCCN1C(=O)c1cc(N2CCCCC2)n2nc(-c3ccc(NC(=O)C4CC4)cc3)cc2n1` (stereo not drawn) [Compound E18] and `CC1CCCCCN1C(=O)c1cc(N(C)C2CCCCC2)n2nc(-c3ccc(NC(=O)C4CC4)cc3)cc2n1` (stereo not drawn) [Compound E19] cannot be ordered by CC50 at 3 days: over 25100 nM for the first, over 100000 nM for the second.

System: not given
Test: not given
Conditions: not given

First: CCc1cc(C(=O)N2CCCCCC2C)nc2cc(-c3ccc(NC(=O)OCCO)cc3)nn12 (stereo not drawn) [Compound C6]
Second: CCOC(=O)Nc1ccc(-c2cc3nc(C(=O)N4CCCCCC4C)cc(CC)n3n2)cc1 (stereo not drawn) [Compound C7]
The melting point of the first is lower: 176 to 178 °C for the first, 195 to 200 °C for the second.

First: CCc1cc(C(=O)N2CCCCCC2C)nc2cc(-c3ccc(NS(C)(=O)=O)cc3F)nn12 (stereo not drawn) [Compound D1]
Second: CCc1cc(C(=O)N2CCCCCCC2C)nc2cc(-c3ccc(NS(C)(=O)=O)cc3F)nn12 (stereo not drawn) [Compound D3]
The melting point of the first is lower: 135 to 140 °C for the first, 195 to 200 °C for the second.

First: CCc1cc(C(=O)N2CCCCCC2C)nc2c(F)c(-c3ccc(NS(C)(=O)=O)cc3F)nn12 (stereo not drawn) [Compound D4]
Second: CCc1cc(C(=O)N2CCCCCC2C)nc2c(Cl)c(-c3ccc(NC(=O)C4CC4)cc3F)nn12 (stereo not drawn) [Compound E13]
The melting point of the first is lower: 210 to 212 °C for the first, 245 to 250 °C for the second.

First: CCc1cc(C(=O)N2CCCCCC2C)nc2cc(-c3ccc(NC(=O)c4nccn4C)cc3F)nn12 (stereo not drawn) [Compound E1]
Second: CCc1cc(C(=O)N2CCCCCC2C)nc2cc(-c3ccc(NC(=O)Cn4ccnc4)cc3F)nn12 (stereo not drawn) [Compound E3]
The melting point of the first is higher: 210 to 215 °C for the first, 155 to 160 °C for the second.

First: CCc1cc(C(=O)N2CCCCCC2C)nc2cc(-c3ccc(NC(=O)Cc4ccncc4)cc3F)nn12 (stereo not drawn) [Compound E2]
Second: CCCC(=O)Nc1ccc(-c2cc3nc(C(=O)N4CCCCCC4C)cc(CC)n3n2)c(F)c1 (stereo not drawn) [Compound E4]
The melting point of the first is higher: 195 to 200 °C for the first, 175 to 180 °C for the second.

First: C=CCC(=O)Nc1ccc(-c2cc3nc(C(=O)N4CCCCCC4C)cc(CC)n3n2)c(F)c1 (stereo not drawn) [Compound E5]
Second: CCc1cc(C(=O)N2CCCCCC2C)nc2cc(-c3ccc(NC(=O)CC#N)cc3F)nn12 (stereo not drawn) [Compound E6]
The melting point of the first is lower: 170 to 175 °C for the first, 245 to 250 °C for the second.

First: CCc1cc(C(=O)N2CCCCCC2C)nc2cc(-c3ccc(NC(=O)CCOC)cc3F)nn12 (stereo not drawn) [Compound E7]
Second: CCc1cc(C(=O)N2CCCCCC2C)nc2cc(-c3ccc(NC(=O)C4(C)CC4)cc3F)nn12 (stereo not drawn) [Compound E8]
The melting point of the first is lower: 175 to 180 °C for the first, 225 to 230 °C for the second.

First: CCc1cc(C(=O)N2CCCCCC2C)nc2cc(-c3ccc(NC(=O)CC4CCCCN(C)C4=O)cc3)nn12 (stereo not drawn) [Compound E9]
Second: CCc1cc(C(=O)N2CCCCCC2C)nc2cc(-c3ccc(NC(=O)C4CC4)cc3)nn12 (stereo not drawn) [Compound E14]
The melting point of the first is lower: 255 to 260 °C for the first, 265 to 270 °C for the second.

First: CCc1cc(C(=O)N2CCCCC[C@H]2C)nc2cc(-c3ccc(NC(=O)C4CC4)cc3F)nn12 [Compound E10]
Second: CCc1cc(C(=O)N2CCCCCC2C)nc2cc(-c3ccc(NC(=O)C4CC4)cc3F)nn12 (stereo not drawn) [Compound E11]
The melting point of the first is higher: 225 to 230 °C for the first, 145 °C for the second.

First: CCc1cc(C(=O)N2CCCCC2C)nc2cc(-c3ccc(NC(=O)C4CC4)cc3)nn12 (stereo not drawn) [Compound E15]
Second: CCCC(=O)Nc1ccc(-c2cc3nc(C(=O)N4CCCCCC4C)cc(CC)n3n2)cc1 (stereo not drawn) [Compound E20]
The melting point of the first is lower: 260 to 265 °C for the first, 268 to 270 °C for the second.

Compared with `CCc1cc(C(=O)N2CCCCCC2C)nc2cc(-c3ccc(NC(=O)C4CC4)cc3C)nn12` (stereo not drawn) [Compound E16], `CC1CCCCCN1C(=O)c1cc(N2CCCC2)n2nc(-c3ccc(NC(=O)C4CC4)cc3)cc2n1` (stereo not drawn) [Compound E17] is higher in melting point: 223 °C for the first, 282 to 284 °C for the second.

First: CC1CCCCCN1C(=O)c1cc(N2CCCCC2)n2nc(-c3ccc(NC(=O)C4CC4)cc3)cc2n1 (stereo not drawn) [Compound E18]
Second: CC1CCCCCN1C(=O)c1cc(N(C)C2CCCCC2)n2nc(-c3ccc(NC(=O)C4CC4)cc3)cc2n1 (stereo not drawn) [Compound E19]
The melting point of the first is higher: 299 to 300 °C for the first, 261 to 262 °C for the second.

From patent US11084826B2, “RSV antiviral pyrazolo- and triazolo-pyrimidine compounds” (Janssen Sciences Ireland Unlimited Company, priority 2015, dated 2021)
